Experimental data as given in the NIST ThermoML archive (doi:10.1021/je500153g).

Experiment: xn = mol fraction of the nth substance listed
Details: 101 kPa, Liquid; for viscosity: Concentric cylinders viscometry; for mass density: Vibrating tube method

O=S1(=O)CCCC1 [sulfolane] + OCCOCCO
Details | mass density, 303.15 K [kg/m3] | mass density, 313.15 K [kg/m3] | mass density, 323.15 K [kg/m3] | mass density, 333.15 K [kg/m3] | mass density, 343.15 K [kg/m3] | viscosity, 303.15 K [mPa·s] | viscosity, 313.15 K [mPa·s] | viscosity, 323.15 K [mPa·s] | viscosity, 333.15 K [mPa·s] | viscosity, 343.15 K [mPa·s]
x1 = 0.097 | 1125 | 1117.6 | 1110.2 | 1102.7 | 1094.9 | 19.1 | 12.9 | 9.13 | 6.74 | 5.15
x1 = 0.198 | 1140 | 1132.5 | 1124.8 | 1117 | 1109.1 | 16.3 | 11.2 | 8.04 | 6.01 | 4.65
x1 = 0.319 | 1158.2 | 1150.3 | 1142.3 | 1134.2 | 1126.1 | 13.8 | 9.62 | 7.03 | 5.35 | 4.19
x1 = 0.414 | 1172.2 | 1164.2 | 1156.1 | 1147.8 | 1139.6 | 12.2 | 8.7 | 6.46 | 4.97 | 3.94
x1 = 0.499 | 1185.2 | 1176.9 | 1168.6 | 1160.3 | 1151.9 | 11.2 | 8.07 | 6.07 | 4.72 | 3.78
x1 = 0.614 | 1202.9 | 1194.5 | 1186 | 1177.5 | 1169 | 10.2 | 7.49 | 5.72 | 4.5 | 3.64
x1 = 0.698 | 1215.6 | 1207.1 | 1198.5 | 1190 | 1181.3 | 9.72 | 7.25 | 5.61 | 4.47 | 3.64
x1 = 0.789 | 1229.7 | 1221.1 | 1212.5 | 1203.8 | 1195.1 | 9.35 | 7.08 | 5.54 | 4.46 | 3.66
x1 = 0.887 | 1245 | 1236.3 | 1227.5 | 1218.8 | 1210.1 | 9.39 | 7.23 | 5.72 | 4.64 | 3.84
x1 = 1 | 1262.9 | 1254.1 | 1245.2 | 1236.6 | 1228.1 | 10.4 | 8.07 | 6.45 | 5.22 | 4.32

OCCOCCOCCO [triethylene glycol] + O=S1(=O)CCCC1
Details | mass density, 303.15 K [kg/m3] | mass density, 313.15 K [kg/m3] | mass density, 323.15 K [kg/m3] | mass density, 333.15 K [kg/m3] | mass density, 343.15 K [kg/m3] | viscosity, 303.15 K [mPa·s] | viscosity, 313.15 K [mPa·s] | viscosity, 323.15 K [mPa·s] | viscosity, 333.15 K [mPa·s] | viscosity, 343.15 K [mPa·s]
x2 = 0 | 1116.5 | 1108.9 | 1101.1 | 1093.4 | 1085.5 | 29.5 | 19.3 | 13.3 | 9.58 | 7.16
x2 = 0.123 | 1130.3 | 1122.4 | 1114.6 | 1106.6 | 1098.5 | 25.6 | 16.9 | 11.8 | 8.6 | 6.49
x2 = 0.268 | 1147.6 | 1139.5 | 1131.5 | 1123.3 | 1115 | 21.2 | 14.3 | 10.1 | 7.49 | 5.74
x2 = 0.505 | 1178.8 | 1170.5 | 1161.9 | 1153.4 | 1145 | 15.6 | 10.9 | 8 | 6.09 | 4.78
x2 = 0.598 | 1192.2 | 1183.7 | 1175.1 | 1166.6 | 1158 | 13.9 | 9.9 | 7.36 | 5.67 | 4.49
x2 = 0.678 | 1204.5 | 1196 | 1187.5 | 1178.8 | 1170.1 | 12.6 | 9.13 | 6.88 | 5.36 | 4.29
x2 = 0.768 | 1219 | 1210.3 | 1201.5 | 1192.9 | 1184.3 | 11.4 | 8.4 | 6.43 | 5.09 | 4.12
x2 = 0.837 | 1231.3 | 1222.6 | 1213.9 | 1205.2 | 1196.4 | 10.8 | 8.11 | 6.29 | 5.01 | 4.1
x2 = 0.929 | 1248.8 | 1240 | 1231.2 | 1222.4 | 1213.7 | 10.3 | 7.89 | 6.22 | 5.02 | 4.13
